Molecules are shown by their SMILES.

The text below walks through data of patent publication US10683321B2, “4′-or nucleosides for the treatment of HCV” (IDENIX PHARMACEUTICALS LLC, priority 2013, dated 2020).

Data set [1] in a line: Cytotoxicity evaluation, CellTiter-Blue Cell Viability Assay. The settings on record: human, Zluc cells (HCV replicon). The class given is cell-based. As to the method:
For cytotoxicity evaluation, Zluc cells were treated with compound as described herein, and cell viability was monitored using the CellTiter-Blue Cell Viability Assay (Promega) by adding 20 μL of the assay solution to each well. The plates were then incubated at 37° C./5% CO2 for at least 3 hours. Fluorescence was detected in plates using excitation and emission wavelengths of 560 and 590 nm, respectively, in a Victor^3 V 1420 multilabel counter (Perkin Elmer) and CC50 values were determined using Microsoft Excel and XLfit 4.1 software.

For data set [2], the system named is HCV genotype 1b replicon in Huh-7-derived cell line (Zluc). Put plainly: HCV Replicon Assay (luciferase reporter). In kind it is cell-based. The conditions noted are these: Hepatitis C virus; Zluc cells, 72 hours of incubation, luciferase readout. Here is the method:
Huh-7-derived cell line (Zluc) that harbors an HCV genotype 1b replicon and a luciferase reporter gene was grown in Dulbecco's Modified Eagle Medium (DMEM) supplemented with 10% fetal bovine serum, 2 mM GlutaMAX, 1% MEM nonessential amino acids, 100 IU/mL penicillin, 100 μg/mL streptomycin, and 0.5 mg/mL Geneticin® (G418). For dose response testing the cells were seeded in 96-well plates at 7.5×10^3 cells per well in a volume of 50 μL, and incubated at 37° C./5% CO2. Drug solutions were made up freshly in Huh-7 media as 2× stocks. Ten additional 5-fold dilutions were prepared from these stocks in DMEM without G418. At least three hours after Zluc cells were seeded, drug treatment was initiated by adding 50 μL of drug dilutions to the plates in duplicate. Final concentrations of drug ranged from 100 μM to 0.0000512 μM. Cells were then incubated at 37° C./5% CO2. Alternatively, compounds were tested at two concentrations (1 μM and 10 μM). […] After 72 hours of incubation, the inhibition of HCV replication was measured by quantification of photons emitted after mono-oxygenation of 5′-fluoroluciferin to oxyfluoroluciferin by firefly luciferase. For this, media was removed from the plates via gentle tapping. Fifty microliters of ONE-glo luciferase assay reagent was added to each well. The plates were shaken gently for 3 min at room temperature and luminescence was measured on a Victor^3 V 1420 multilabel counter (Perkin Elmer) with a 1 second read time using a 700 nm cut-off filter. The EC50 values were calculated from dose response curves from the resulting best-fit equations determined by Microsoft Excel and XLfit 4.1 software. When screening at two fixed concentrations, the results were expressed as % inhibition at 1 μM and 10 μM.
A general note: A replicon is a self-replicating genome or part of one, used to study replication in cells.

For data set [3], the target named is T1, HCV genotype 1b NS5B protein containing the S282T mutation (Hepatitis C virus genotype 1b, UniProt Q9WMX2, S2701T).
T1 construct: HCV genotype 1b NS5B protein were used to generate recombinant HCV polymerases (with a deletion of the 21 carboxy terminal amino acids); made in house
Put plainly: HCV Polymerase Enzyme Assay, S282T mutant. In kind it is biochemical. The source says: (§1) Test compounds in the form of nucleoside triphosphates were examined for inhibitory activity against purified HCV polymerase in a standard assay. Bacterial expression constructs encoding the approximately 65 kDa HCV genotype 1b NS5B protein were used to generate recombinant HCV polymerases (with a deletion of the 21 carboxy terminal amino acids). Both the wild-type genotype 1b protein and protein containing the S282T mutation were expressed and purified for use in the enzymatic activity assay.
(§2) The enzymatic activity assay measured the inhibitory effect of increasing concentrations of test compound on the incorporation of α-[^33P]-labeled nucleotide into trichloroacetic acid-precipitable material. Recombinant polymerase and synthetic RNA template were combined in reaction buffer containing ribonucleoside triphosphates, α-[^33P]-labeled nucleotide and eight concentrations of test compound in three-fold dilutions. Reactions were incubated for two hours at 30° C.
(§3) Reactions were terminated by the addition of ice-cold trichloroacetic acid and sodium pyrophosphate to promote precipitation of newly-synthesized ribonucleic acid. Precipitable material from the reactions was collected by filtration onto 96-well filter plates, washed extensively with water, and quantified by liquid scintillation.
(§4) The inhibitory activity of test compounds was determined by fitting results to dose-response curves using XLfit software.

For data set [4], the target named is T2, wild-type HCV genotype 1b NS5B protein (recombinant HCV polymerase) (Hepatitis C virus genotype 1b, UniProt Q9WMX2).
T2 construct: HCV genotype 1b NS5B protein were used to generate recombinant HCV polymerases (with a deletion of the 21 carboxy terminal amino acids); made in house
Put plainly: HCV Polymerase Enzyme Assay, wild-type. The class given is biochemical.
Text: as §1, §2, §3, §4

What is called CC50 is the concentration giving 50% cytotoxicity. In general, EC50 refers to the concentration that produces a half-maximal response. As to `CO[C@]1(COP(=O)(N[C@@H](C)C(=O)OC(C)C)OCCSC(=O)C(C)(C)C)O[C@@H](n2ccc(N)nc2=O)[C@H](O)[C@@H]1O` (single isomer, unassigned) [Compound 16a], the CC50 at 72 h in data set [1] is > 50 µM. Moreover, in data set [2], the EC50 is > 10 µM.
For the compound `CO[C@]1(CO)O[C@@H](n2ccc(=O)[nH]c2=O)[C@H](O)[C@@H]1O` [Compound 2a], the CC50 at 72 h in data set [1] is > 50 µM. Besides, in data set [2], the EC50 is > 10 µM.
For the compound `CO[C@]1(CO)O[C@@H](n2ccc(=O)[nH]c2=O)[C@H](F)[C@@H]1O` [Compound 2b], the CC50 at 72 h in data set [1] is > 50 µM. Moreover, the EC50 in data set [2] is > 10 µM.
For `CO[C@]1(CO)O[C@@H](n2ccc(=O)[nH]c2=O)[C@H](O)[C@@H]1F` [Compound 2c], the CC50 at 72 h in data set [1] is > 50 µM. The EC50 in data set [2] is > 10 µM.
Consider `CO[C@@]1(CO)C[C@@H](O)[C@H](n2ccc(=O)[nH]c2=O)O1` [Compound 2d], for which the CC50 at 72 h in data set [1] is > 50 µM. Moreover, the EC50 in data set [2] was > 10 µM.
As to `CO[C@]1(CO)O[C@@H](n2ccc(=O)[nH]c2=O)[C@H](O)[C@@H]1N=[N+]=[N-]` [Compound 2e], in data set [1], the CC50 at 72 h was > 50 µM. In addition, the EC50 in data set [2] was > 10 µM.
For `CO[C@]1(CO)O[C@@H](n2ccc(N)nc2=O)[C@H](O)[C@@H]1O` [Compound 5a2], the CC50 at 72 h in data set [1] is > 50 µM. The EC50 in data set [2] is > 10 µM.
On the same counts, the results for `CO[C@]1(CO)O[C@@H](n2ccc(N)nc2=O)[C@H](O)[C@@H]1F` [Compound 5c] are > 50 µM and > 10 µM.
Turning to `CCO[C@]1(CO)O[C@@H](n2ccc(=O)[nH]c2=O)[C@H](O)[C@@H]1O` [Compound 6a], in data set [1], the CC50 at 72 h was > 50 µM. Also, the EC50 in data set [2] was > 10 µM.
On the same counts, the results for `CC(C)O[C@]1(CO)O[C@@H](n2ccc(=O)[nH]c2=O)[C@H](O)[C@@H]1O` [Compound 7a] are > 50 µM and > 10 µM.
Regarding `CC(C)O[C@]1(CO)O[C@@H](n2ccc(=O)[nH]c2=O)[C@H](F)[C@@H]1O` [Compound 7b], the CC50 at 72 h in data set [1] was > 50 µM. The EC50 in data set [2] was > 10 µM.
For `C#CCO[C@]1(CO)O[C@@H](n2ccc(=O)[nH]c2=O)[C@H](O)[C@@H]1O` [Compound 8a], in data set [1], the CC50 at 72 h was > 50 µM. For the same compound, the EC50 in data set [2] was > 10 µM.
By IC50 is commonly meant the concentration that gives 50% inhibition. With `CO[C@]1(COP(=O)(O)OP(=O)(O)OP(=O)(O)O)O[C@@H](n2ccc(=O)[nH]c2=O)[C@H](O)[C@@H]1O` [Compound 9a], the IC50 in data set [3] and in data set [4] was 0.25 to 1 µM each time.
As to `CO[C@]1(COP(=O)(O)OP(=O)(O)OP(=O)(O)O)O[C@@H](n2ccc(=O)[nH]c2=O)[C@H](F)[C@@H]1O` [Compound 9b], the IC50 in data set [4] lay within 1 to 10 µM.
The same measure, in the same setting: next, `CO[C@]1(COP(=O)(O)OP(=O)(O)OP(=O)(O)O)O[C@@H](n2ccc(=O)[nH]c2=O)[C@H](O)[C@@H]1F` [Compound 9c]: 0.25 to 1 µM; `CO[C@@]1(COP(=O)(O)OP(=O)(O)OP(=O)(O)O)C[C@@H](O)[C@H](n2ccc(=O)[nH]c2=O)O1` [Compound 9d]: 1 to 10 µM; `CO[C@]1(COP(=O)(O)OP(=O)(O)OP(=O)(O)O)O[C@@H](n2ccc(=O)[nH]c2=O)[C@H](O)[C@@H]1N` [Compound 9e]: > 10 µM.
Turning to `CO[C@]1(COP(=O)(O)OP(=O)(O)OP(=O)(O)O)O[C@@H](n2ccc(N)nc2=O)[C@H](O)[C@@H]1O` [Compound 9f], the IC50 in data set [3] was 0.25 to 1 µM; in data set [4] it was < 0.25 µM.
For `CO[C@]1(COP(=O)(O)OP(=O)(O)OP(=O)(O)O)O[C@@H](n2ccc(N)nc2=O)[C@H](O)[C@@H]1F` [Compound 9g], the concentration for half-maximal inhibition (IC50) in data set [3] and in data set [4] was 0.25 to 1 µM throughout.
As for `CO[C@]1(COP(=O)(N[C@H](C)C(=O)OC(C)C)Oc2ccccc2)O[C@@H](n2ccc(N)nc2=O)[C@H](O)[C@@H]1O` (stereo partly drawn) [Compound 13a], the half-maximal cytotoxic concentration (CC50) at 72 h in data set [1] is > 50 µM. In data set [2], the EC50 was > 10 µM.
As for `CO[C@]1(COP(=O)(N[C@@H](C)C(=O)OC(C)C)OCCSC(=O)C(C)(C)C)O[C@@H](n2ccc(=O)[nH]c2=O)[C@H](O)[C@@H]1O` (stereo partly drawn) [Compound 14a], the CC50 at 72 h in data set [1] is > 50 µM. Moreover, the EC50 in data set [2] was > 10 µM.
As for `CO[C@]1(COP(=O)(O)OP(=O)(O)O)O[C@@H](n2ccc(=O)[nH]c2=O)[C@H](O)[C@@H]1O` [Compound 17a], in data set [4], the IC50 is > 10 µM.
For `CO[C@]1(COP(=O)(O)O)O[C@@H](n2ccc(=O)[nH]c2=O)[C@H](O)[C@@H]1O` [Compound 18a], the half-inhibitory concentration (IC50) in data set [4] is > 10 µM.
Consider `CO[C@]1(CO)O[C@@H](n2cnc3c(=O)[nH]c(N)nc32)[C@@H](N=[N+]=[N-])[C@@H]1O` [Compound 20], for which the CC50 at 72 h in data set [1] is > 50 µM. For the same compound, in data set [2], the EC50 is > 10 µM.
Consider `CO[C@]1(CO)O[C@@H](n2cnc3c(=O)[nH]c(N)nc32)[C@H](N=[N+]=[N-])[C@@H]1O` [Compound 21], for which the CC50 at 72 h in data set [1] is > 50 µM. Besides, in data set [2], the EC50 was > 10 µM.
On to `CO[C@]1(CO)O[C@@H](n2ccc(=O)[nH]c2=O)[C@H](N=[N+]=[N-])[C@@H]1O` [Compound 23], for which the CC50 at 72 h in data set [1] was > 50 µM. Moreover, the concentration for a half-maximal effect (EC50) in data set [2] was > 10 µM.
As for `CO[C@H]1[C@H](n2ccc(=O)[nH]c2=O)O[C@@](CO)(OC)[C@H]1O` [Compound 24], in data set [1], the CC50 at 72 h was > 50 µM. Moreover, the 50% effective concentration (EC50) in data set [2] is > 10 µM.
For `CO[C@]1(COP(=O)(N[C@H](C)C(=O)OC(C)C)Oc2ccccc2)O[C@@H](n2ccc(=O)[nH]c2=O)[C@H](N=[N+]=[N-])[C@@H]1O` (stereo partly drawn) [Compound 123], in data set [1], the CC50 at 72 h was > 50 µM. Also, the EC50 in data set [2] was > 10 µM.
`CO[C@]1(COP(=O)(O)OP(=O)(O)OP(=O)(O)O)O[C@@H](n2cnc3c(=O)[nH]c(N)nc32)[C@@H](N=[N+]=[N-])[C@@H]1O` [Compound 220]: the IC50 in data set [4] lay within 1 to 10 µM.
As for `CO[C@]1(COP(=O)(O)OP(=O)(O)OP(=O)(O)O)O[C@@H](n2cnc3c(=O)[nH]c(N)nc32)[C@H](F)[C@@H]1O` [Compound 222], the IC50 was 0.25 to 1 µM in data set [3] and < 0.25 µM in data set [4].
Regarding `CO[C@]1(COP(=O)(O)OP(=O)(O)OP(=O)(O)O)O[C@@H](n2ccc(=O)[nH]c2=O)[C@H](N=[N+]=[N-])[C@@H]1O` [Compound 223], the IC50 in data set [4] is > 10 µM.
For `CO[C@H]1[C@H](n2ccc(=O)[nH]c2=O)O[C@@](COP(=O)(O)OP(=O)(O)OP(=O)(O)O)(OC)[C@H]1O` [Compound 224], in data set [4], the IC50 was > 10 µM.
As for `CO[C@]1(COP(=O)(O)OP(=O)(O)OP(=O)(O)O)O[C@@H](n2cnc3c(=O)[nH]c(N)nc32)[C@@H](N)[C@@H]1O` [Compound 230], in data set [4], the IC50 is 1 to 10 µM.
With `CO[C@]1(COP(=O)(O)OP(=O)(O)OP(=O)(O)O)O[C@@H](n2ccc(=O)[nH]c2=O)[C@H](N)[C@@H]1O` [Compound 233], the IC50 in data set [4] lay in the range of 1 to 10 µM.
